Results published in patent publication US7015343B2, “Sulphonated dehydrogenated sylvate, the preparation and use” (Shanghai Xingkang Pharmaceuticals Research & Development …, priority 2001, dated 2006).

Legend:
[1] = test system: gastric juice secretion of Pylorus-ligated rats; assay: Gastric juice secretion and acidity of pylorus-ligated rats after oral administration; format: in vivo, Wister rats; set-up: T.AC / MEL (10^3) / MEAH: unit not given here; settings: for Total volume of gastric juice: 5 hours after pylorus ligation; for Total volume of gastric juice / MEL (10^3) / MEAH: n = 8, X ± S; for Inhibition ratio for total acid amount / Inhibition to gastric juice secretion: versus control group; for MEL (10^3): acid concentration of gastric juice; for MEAH: total acid amount in gastric juice; for T.AC: volume of 0.01 N NaOH to titrate to pH 7, n = 8, X ± S
Protocol: (§1) Wister rats (200–250 g), half were male and half were female, were starved for 48 hours and the pylori were ligated. Immediately after ligation, a suspension or solution of a salt in distilled water was administered orally into the stomachs in an amount of 2.0 ml/Kg; while 0.5% MC of the same volume was given to the control group. After administration of the test salt for 5 hours, the rats were killed. Their cardias were ligated and their stomachs were taken out. The gastric juice was collected into centrifuge tube and centrifuged at 2500 rpm for 10 min, the volume after residue removed was recorded as the total volume of the gastric juice. The acidity of gastric juice and pepsin activity were measured with the supernatant of the gastric juice after centrifuging.
(a) Measurement of the acidity of gastric juice: with 0.5 ml of gastric juice taken exactly, about 20 ml of distilled water added in, it was measured with pH meter. The mixture was titrated to pH 7 with 0.01 N NaOH solution, and the volume of 0.01 N NaOH solution used was recorded. Then, the volume (T.AC) was calculated corresponding to titrating to pH 7 with 0.01 N NaOH solution. Acid concentration of gastric juice (MEL)=(T.AC/2)×1000 Total acid amount in gastric juice (MEAH)=MEL×(total volume of gastric juice/1000) Inhibiting ratio on the secretion of gastric juice %=[(volume of the gastric juice of the control group−volume of the gastric juice of the treatment group)/volume of the gastric juice of the control group]×100% Inhibiting ratio on the total acid amount in gastric juice %=[(MEAH of the control group−MEAH of the treatment group)/MEAH of the control group]×100%

pepsin = assay: Pepsin activity in gastric juice of pylorus-ligated rats (Mett tube method); format: in vivo, Wister rats; settings: for activity of pepsin: n = 8, X ± S; for Inhibition ratio for pepsin activity: versus control group
Protocol: as §1
(b) Enzyme assay for pepsin (Mett tube method): 0.5 ml of gastric juice was added exactly into a clean 50 ml flask with a plug, the flask was shaken to get a homogeneous solution, then, 15.0 ml of 0.05 N HCL solution was added in, in the meantime, two 3.0–4.0 cm long Mett tubes were put inside. The flask was plugged, shaken to get a homogeneous solution, left to stand at 37° C. for 24 hours. The length (mm) of the transparent part at the two ends of each Mett tube was measured precisely to get four values. The mean value was based on the four values, and the pepsin activity was calculated. Inhibiting ratio of pepsin activity %=[(pepsin activity of the control group−pepsin activity of the treatment group)/pepsin activity of the control group]×100% Test Result: […]

KunMing mice = assay: Acute toxicity of NIPWZ, oral administration to mice (LD50, Bliss's method); format: in vivo; settings: for Death distribution 2 h / Death distribution 4 h / Death distribution 24 h / Death distribution 72 h / Number of death (F:M) / Ratio of death: 10 mice
Protocol: 50 second grade KunMing mice were provided, each weighing 20.0±1.2 g, randomly divided into 5 groups, 10 for each group, 5 male and 5 female. Medicine was administered intra-gastrically by 40 ml/Kg once, the solvent was 0.5% MC. The doses for the 5 groups were: 4480 mg/Kg, 3000 mg/Kg, 2010 mg/Kg, 1350 mg/Kg, 910 mg/Kg, the ratio of any two abutted doses was 1:0.67. […] Wherein the LD50 was determined by Bliss's method.

## Salts of Sulfodehydroabietic Acid with Bismuth [NIPWB]
[1]; oral 50 mg/Kg
  Total volume of gastric juice: 6.5 ± 2.5 mL
  Inhibition ratio for total acid amount: 45.7%
  Inhibition to gastric juice secretion: 28.6%
  MEL (10^3): 2.42 ± 1.79
  MEAH: 15.9 ± 4.5
  T.AC: 4.85 ± 3.58
[1]; oral 100 mg/Kg
  Total volume of gastric juice: 7.6 ± 2.9 mL
  Inhibition ratio for total acid amount: 44.4%
  Inhibition to gastric juice secretion: 16.5%
  MEL (10^3): 2.16 ± 1.65
  MEAH: 16.3 ± 4.7
  T.AC: 4.32 ± 3.30
pepsin; oral 50 mg/Kg
  activity of pepsin: 0.74 ± 0.61 U
  Inhibition ratio for pepsin activity: 50.0%
pepsin; oral 100 mg/Kg
  activity of pepsin: 0.36 ± 0.20 U
  Inhibition ratio for pepsin activity: 75.7%

## Salts of Sulfodehydroabietic Acid with Zinc [NIPWZ]
[1]; oral 50 mg/Kg
  Total volume of gastric juice: 7.2 ± 2.9 mL
  Inhibition ratio for total acid amount: 52.9%
  Inhibition to gastric juice secretion: 20.9%
  MEL (10^3): 1.92 ± 1.47
  MEAH: 13.8 ± 4.2
  T.AC: 3.83 ± 2.93
[1]; oral 100 mg/Kg
  Total volume of gastric juice: 7.0 ± 3.1 mL
  Inhibition ratio for total acid amount: 47.1%
  Inhibition to gastric juice secretion: 23.1%
  MEL (10^3): 2.21 ± 1.32
  MEAH: 15.5 ± 4.1
  T.AC: 4.41 ± 2.64
pepsin; oral 50 mg/Kg
  activity of pepsin: 0.88 ± 0.33 U
  Inhibition ratio for pepsin activity: 40.5%
pepsin; oral 100 mg/Kg
  activity of pepsin: 0.66 ± 0.34 U
  Inhibition ratio for pepsin activity: 55.4%
KunMing mice; mice, oral 910 mg/Kg
  Death distribution 2 h: 0
  Death distribution 4 h: 0
  Death distribution 24 h: 0
  Death distribution 72 h: 0
  Number of death (F:M): 0 (0:0)
  Ratio of death: 0%
KunMing mice; mice, oral 1350 mg/Kg
  Death distribution 2 h: 0
  Death distribution 4 h: 0
  Death distribution 24 h: 3
  Death distribution 72 h: 1
  Number of death (F:M): 4 (1:3)
  Ratio of death: 40%
KunMing mice; mice, oral 2010 mg/Kg
  Death distribution 2 h: 0
  Death distribution 4 h: 0
  Death distribution 24 h: 7
  Death distribution 72 h: 0
  Number of death (F:M): 7 (5:2)
  Ratio of death: 70%
KunMing mice; mice, oral 3000 mg/Kg
  Death distribution 2 h: 0
  Death distribution 4 h: 7
  Death distribution 24 h: 1
  Death distribution 72 h: 0
  Number of death (F:M): 8 (5:3)
  Ratio of death: 80%
KunMing mice; mice, oral 4480 mg/Kg
  Death distribution 2 h: 7
  Death distribution 4 h: 3
  Death distribution 24 h: 0
  Death distribution 72 h: 0
  Number of death (F:M): 10 (5:5)
  Ratio of death: 100%
KunMing mice; mice, oral administration, Bliss's method
  LD50: 1728 mg/kg
KunMing mice; taking 1000 mg/day for a 60 Kg human being
  LD50 as multiple of the clinic dose: approximately 104 times
